Test results as given in US20220184220A1, “XYLOGLUCAN-CONTAINING PRODRUGS AND METHODS OF MANUFACTURE AND USE THEREOF” (priority 2019, published 2022).
Entries after “also recorded” stand apart in the source; their conditions may differ.

How the values were obtained:
[1] = Dissolution of steroid in sterile water for gavage; type: physicochemical; conditions: dose in 100 μL gavage volume
Method: The average weight of the mice (27.9 g) was calculated on the second day of the Citrobacter rodentium infection, and this average weight was used to calculate the steroid concentrations for all treatments. The steroids were dissolved as best as possible in sterile water, and stored at 4° C. until needed. Steroids were administered by gavage in […] for 3 consecutive days at the same time each morning (24 hrs between treatments) for the final 3 days of the C. rodentium infection. Mice in the control groups (without drug intervention) received water by gavage in 100 μL volumes. Gavage needles for drug administration were coated in sucrose solution (1 g/mL, syringe-filter sterilized) as a refinement procedure.

[2] = tested on: acute self-limiting colitis in mice; assay: Histological scoring of inflammation, C. rodentium colitis in germ-free mice colonized with B. ovatus (Example 3); type: in vivo; conditions: n=2; for Crypt Height / Epithelia Hyperplasia / Epithelial Injury / Fibrosis / Globlet cell / Inflamm / Mitotic Act.: gavage 3 days, prednisolone forms 1 mg/kg/day, dexamethasone forms 0.6 mg/kg/day; for Total Score: sum of each scoring category
[3] = tested on: acute self-limiting colitis in mice; assay: Histological scoring of inflammation, C. rodentium colitis in mice with normal enteric microbiota (Example 7); type: in vivo; conditions: CR+/BO+ mice; prednisolone forms 1 mg/kg, dexamethasone forms 1.5 mg/kg (equivalent); one day following steroid treatment
Method: Approval to conduct this project was obtained from the AAFC LeRDC Animal Care Committee (Animal Use Protocol 1911). […] The methods employed were essentially the same as those described in Example 3, except that the Citrobacter rodentium (CR) was administered to incite acute self-limiting colitis in mice prior to colonization with Bacteroides ovatus (BO). […] FIG. 20 provides a schematic illustrating the study design and timelines.
As in the study described in Example 3, there were gross histopathological differences in the distal colon tissue obtained from mice in the different treatment groups. Histological scoring of inflammation was performed by a board-certified pathologist blinded to treatment. […] Following CR infection, with no treatment, neutrophil infiltration was evident and the histological score was 10. […] Evidence of enhanced amelioration of protein markers of inflammation were also observed. […] IL-12p70 is a pro-inflammatory cytokine involved in cell-mediated immunity. For example, it is known as a T cell-stimulating factor, which can stimulate the growth and function of T cells. Moreover, it stimulates the production of interferon-gamma (IFN-γ) and tumor necrosis factor-alpha (TNF-α) from T cells and natural killer (NK) cells, and reduces IL-4 mediated suppression of IFN-γ.

[4] = tested on: acute self-limiting colitis in mice; assay: Gross visual observations of the murine abdomen (Example 3); type: in vivo; conditions: necropsy after 3 days of steroid gavage
Description: Under isoflurane anesthesia, mice were terminally bled by cardiac puncture and then humanely euthanized by cervical dislocation. All collected blood was separated into serum that was dedicated for steroid detection and optimization of steroid detection procedures. Following euthanasia, a midline laparotomy was made and gross observations of the abdominal regions were photo-documented. Approximately 1 cm sections of the cecum, and the most proximal and distal portions of the colon were divided for histological examination. Cecal and colonic tissues were flash frozen in liquid nitrogen for future immunological protein quantification. Digesta extracted from the colon was stored at −80° C. for future steroid detection, and fresh feces from the cages were used to enumerate Bacteroides ovatus and Citrobacter rodentium by microbiological techniques on the same day as the necropsy.

In the case of `C[C@]12C=CC(=O)C=C1CC[C@@H]1[C@@H]2[C@@H](O)C[C@@]2(C)[C@H]1CC[C@]2(O)C(=O)CO` [prednisolone, reference compound], the dissolution in water [1] is reported as “did not fully dissolve in water”, the “Crypt Height” value ([2]; cecal tissue) is reported as 1.5 and the “Epithelia Hyperplasia” value ([2]; cecal tissue) is reported as 1.5. For the same compound, the “Epithelial Injury” value ([2]; cecal tissue) was 1, the Fibrosis ([2]; cecal tissue) was 1 and the Globlet cell ([2]; cecal tissue) was 0.5. The Inflamm ([2]; cecal tissue) was 1.5, the “Mitotic Act.” value ([2]; cecal tissue) was 1 and the “Total Score” value ([2]; cecal tissue) was 8. For the same compound, the “Crypt Height” value ([2]; distal colon) was 1.5, the “Epithelia Hyperplasia” value ([2]; distal colon) was 1.5 and the “Epithelial Injury” value ([2]; distal colon) was 2. It also gave a Fibrosis ([2]; distal colon) of 1.5, a Globlet cell ([2]; distal colon) of 0.5 and an Inflamm ([2]; distal colon) of 1.5. The “Mitotic Act.” value ([2]; distal colon) was 1.5, the “Total Score” value ([2]; distal colon) was 10 and the “Crypt Height” value ([2]; proximal colon) was 2. The “Epithelia Hyperplasia” value ([2]; proximal colon) was 1.5, the “Epithelial Injury” value ([2]; proximal colon) was 2 and the Fibrosis ([2]; proximal colon) was 0. The Globlet cell ([2]; proximal colon) was 0.5, the Inflamm ([2]; proximal colon) was 1.5 and the “Mitotic Act.” value ([2]; proximal colon) was 1.5. The “Total Score” value ([2]; proximal colon) was 9, the “histological score, distal colon” value [3] was 18 and the “blood present in ceca (gross observation)” value [4] was “more blood present in ceca than dexamethasone treatment; also recorded: more blood in cecal area”.
